From patent publication EP3046573B1, “AMYLIN ANALOGUES” (Zealand Pharma A/S, priority 2013, dated 2015)
Numbered stars: 1 amine (or outer) side, 2 acyl side, 3 side chain; on linkers, the order of the positions; unused ones are H or OH. Bridge positions count the residues as written; N and C are the ends. Square brackets hold non-standard residues; d marks the D form. Peptide text beside a SMILES is read from it. * marks the point of attachment. C20 diacid = O=C(O)CCCCCCCCCCCCCCCCCCC(=O)*; γGlu = O=C(O)[C@H](CCC(=O)[*:2])N[*:1]; NMeI = CC[C@H](C)[C@H](NC)C(=O)O; Sar = CNCC(=O)O

Assays:
[1] = Solubility assessment (turbidity absorbance at 325 nm); assay type: physicochemical; conditions: stock 2 mg/ml diluted 1:1, ambient temperature (typically 25°C), n=1; for Solubility, Acetate buffer pH 4: 100 mM acetate buffer pH 4.0; for Solubility, Acetate buffer pH 5: 100 mM acetate buffer pH 5.0; for Solubility, Histidine buffer pH 6: 100 mM histidine buffer pH 6.0; for Solubility, Histidine buffer pH 7: 100 mM histidine buffer pH 7.0; for Solubility, Phosphate buffer pH 6: 100 mM phosphate buffer pH 6.0; for Solubility, Phosphate buffer pH 7: 100 mM phosphate buffer pH 7.0; for Solubility, Phosphate buffer pH 7.5: 100 mM phosphate buffer pH7.5
Outline: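 Peptide stock (2 mg/ml, water pH 2.5) diluted 1:1 into 100 mM acetate (pH 4.0, 5.0), histidine (pH 6.0, 7.0) or phosphate (pH 6.0–7.5) buffer; absorbance at 325 nm read at about 25°C, n=1. A325 ≤ 0.02 taken as solubility ≥ 1 mg/ml.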

[2] = target: T1, human calcitonin receptor (hCTR2) (Homo sapiens, UniProt P30988); experiment: hCTR2 assay: induction of cAMP (AlphaScreen cAMP Assay kit) in COS7 cells expressing hCTR2; assay type: cell-based; conditions: cAMP induction in COS7 cells expressing hCTR2; average of a minimum of 3 determinations; read-out: hCTR2 EC50
T1 construct: expressed in transfected cells
T1 sequence (P30988 25-474): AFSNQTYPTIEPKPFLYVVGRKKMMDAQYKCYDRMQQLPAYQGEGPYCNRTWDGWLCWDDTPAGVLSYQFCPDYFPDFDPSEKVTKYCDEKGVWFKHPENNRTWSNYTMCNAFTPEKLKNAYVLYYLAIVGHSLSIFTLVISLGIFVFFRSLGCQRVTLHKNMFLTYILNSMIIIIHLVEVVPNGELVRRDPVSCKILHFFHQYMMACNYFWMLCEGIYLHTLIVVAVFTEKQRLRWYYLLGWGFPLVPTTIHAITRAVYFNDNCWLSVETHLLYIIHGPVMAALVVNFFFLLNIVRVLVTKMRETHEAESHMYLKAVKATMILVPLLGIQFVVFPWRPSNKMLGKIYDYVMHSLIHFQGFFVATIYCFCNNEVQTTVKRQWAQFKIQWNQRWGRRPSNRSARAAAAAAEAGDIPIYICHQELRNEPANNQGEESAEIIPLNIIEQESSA
Outline: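 Stable RAMP-naive COS7 clone expressing hCTR2 was stimulated with increasing peptide concentrations in Tyrode buffer (pH 7.4) with 100 µM IBMX and 0.1% casein for 15 min at 37° C. Cells were lysed and cAMP measured by AlphaScreen. EC50 and efficacy relative to pramlintide came from 4PL curve fits.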

[3] = target: T2, human amylin receptor 3 (hAMYR3) consisting of hCTR2 co-expressed with human Receptor Activity Modifying Protein 3 (hRAMP3) (Homo sapiens, UniProt O60896+P30988); experiment: hAMYR3 assay: induction of cAMP (AlphaScreen cAMP Assay kit) in COS7 cells expressing hAMYR3; assay type: cell-based; conditions: cAMP induction in COS7 cells expressing hAMYR3; average of a minimum of 3 determinations; read-out: hAMY R3 EC50
T2 construct: expressed in transfected cells
T2 sequence (P30988 25-474): T1 sequence (P30988 25-474)
T2 sequence (O60896 24-148 partner): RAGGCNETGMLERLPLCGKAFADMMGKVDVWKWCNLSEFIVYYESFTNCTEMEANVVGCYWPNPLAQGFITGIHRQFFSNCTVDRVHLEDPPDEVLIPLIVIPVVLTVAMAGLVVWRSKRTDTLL
Outline: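 Stable COS7 clone co-expressing hCTR2 and hRAMP3, stimulated 15 min at 37° C with increasing peptide in Tyrode buffer pH 7.4 with 100 µM IBMX and 0.1% casein. cAMP measured by AlphaScreen after lysis; EC50 and % efficacy versus pramlintide from 4PL fit.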

## CC[C@H](C)[C@@H](C(=O)N[C@@H](CC(C)C)C(=O)N[C@@H](CO)C(=O)N[C@@H](CO)C(=O)N[C@H](C(=O)N[C@@H](CCC(=O)O)C(=O)N[C@H](C(=O)NCC(=O)N[C@@H](CO)C(=O)N[C@@H](CCC(=O)O)C(=O)N[C@H](C(=O)N1CCC[C@H]1C(N)=O)[C@@H](C)O)C(C)C)[C@@H](C)O)N(C)C(=O)[C@H](C)NC(=O)CN(C)C(=O)[C@H](Cc1ccccc1)NC(=O)[C@H](CO)NC(=O)[C@H](CO)NC(=O)[C@H](CO)NC(=O)[C@H](CO)NC(=O)[C@H](CCCNC(=N)N)NC(=O)[C@H](Cc1c[nH]cn1)NC(=O)[C@H](CC(C)C)NC(=O)[C@H](Cc1ccccc1)NC(=O)[C@H](CCC(=O)O)NC(=O)[C@H](C)NC(=O)[C@H](CC(C)C)NC(=O)[C@H](CCCNC(=N)N)NC(=O)CNC(=O)[C@@H](NC(=O)[C@H](C)NC(=O)[C@@H]1CSSC[C@H](NC(=O)[C@H](CCCNC(=N)N)NC(=O)CC[C@H](NC(=O)CCCCCCCCCCCCCCCCCCC(=O)O)C(=O)O)C(=O)N[C@@H](CO)C(=O)N[C@@H]([C@@H](C)O)C(=O)N[C@@H](C)C(=O)N[C@@H]([C@@H](C)O)C(=O)N1)[C@@H](C)O [Compound 132, [19CD]-isoGlu-RC()STATC()ATGRLAEFLHRSSSSF-Gly(Me)-A-Ile(Me)-LSSTEVGSETP-NH2] ({C20 diacid-γGlu}-RCSTATCATGRLAEFLHRSSSSF[Sar]A[NMeI]LSSTEVGSETP-NH2; disulfide 2-7)
[1]
  Solubility, Acetate buffer pH 4: SS (SS indicates solubility ≥ 1mg/ml)
  Solubility, Acetate buffer pH 5: SS (SS indicates solubility ≥ 1mg/ml)
  Solubility, Histidine buffer pH 6: SS (SS indicates solubility ≥ 1mg/ml)
  Solubility, Histidine buffer pH 7: SS (SS indicates solubility ≥ 1mg/ml)
  Solubility, Phosphate buffer pH 6: SS (SS indicates solubility ≥ 1mg/ml)
  Solubility, Phosphate buffer pH 7: SS (SS indicates solubility ≥ 1mg/ml)
  Solubility, Phosphate buffer pH 7.5: SS (SS indicates solubility ≥ 1mg/ml)
[2]
  EC50: 0.22 nM
[3]
  EC50: 0.35 nM

## CC[C@H](C)[C@@H](C(=O)N[C@@H](CC(C)C)C(=O)N[C@@H](CO)C(=O)N[C@@H](CO)C(=O)N[C@H](C(=O)N[C@@H](CCC(=O)O)C(=O)N[C@H](C(=O)NCC(=O)N[C@@H](CO)C(=O)N[C@@H](CCC(=O)O)C(=O)N[C@H](C(=O)N1CCC[C@H]1C(N)=O)[C@@H](C)O)C(C)C)[C@@H](C)O)N(C)C(=O)[C@H](C)NC(=O)CN(C)C(=O)[C@H](Cc1ccccc1)NC(=O)[C@H](CO)NC(=O)[C@H](CO)NC(=O)[C@H](CO)NC(=O)[C@H](CO)NC(=O)[C@H](CCCNC(=N)N)NC(=O)[C@H](Cc1c[nH]cn1)NC(=O)[C@H](CC(C)C)NC(=O)[C@H](Cc1ccccc1)NC(=O)[C@H](CCC(=O)O)NC(=O)[C@H](C)NC(=O)[C@H](CC(C)C)NC(=O)[C@H](CCCNC(=N)N)NC(=O)[C@H](CO)NC(=O)[C@@H](NC(=O)[C@H](C)NC(=O)[C@@H]1CSSC[C@H](NC(=O)[C@H](CCCNC(=N)N)NC(=O)CC[C@H](NC(=O)CCCCCCCCCCCCCCCCCCC(=O)O)C(=O)O)C(=O)N[C@@H](CO)C(=O)N[C@@H]([C@@H](C)O)C(=O)N[C@@H](C)C(=O)N[C@@H]([C@@H](C)O)C(=O)N1)[C@@H](C)O [Compound 133, [19CD]-isoGlu-RC()STATC()ATSRLAEFLHRSSSSF-Gly(Me)-A-Ile(Me)-LSSTEVGSETP-NH2] ({C20 diacid-γGlu}-RCSTATCATSRLAEFLHRSSSSF[Sar]A[NMeI]LSSTEVGSETP-NH2; disulfide 2-7)
[1]
  Solubility, Acetate buffer pH 4: SS (SS indicates solubility ≥ 1mg/ml)
  Solubility, Acetate buffer pH 5: SS (SS indicates solubility ≥ 1mg/ml)
  Solubility, Histidine buffer pH 6: SS (SS indicates solubility ≥ 1mg/ml)
  Solubility, Histidine buffer pH 7: SS (SS indicates solubility ≥ 1mg/ml)
  Solubility, Phosphate buffer pH 6: SS (SS indicates solubility ≥ 1mg/ml)
  Solubility, Phosphate buffer pH 7: SS (SS indicates solubility ≥ 1mg/ml)
  Solubility, Phosphate buffer pH 7.5: SS (SS indicates solubility ≥ 1mg/ml)
[2]
  EC50: 0.3 nM
[3]
  EC50: 0.36 nM

## CC[C@H](C)[C@@H](C(=O)N[C@@H](CC(C)C)C(=O)N[C@@H](CO)C(=O)N[C@@H](CO)C(=O)N[C@H](C(=O)N[C@@H](CCC(=O)O)C(=O)N[C@H](C(=O)NCC(=O)N[C@@H](CO)C(=O)N[C@@H](CCC(=O)O)C(=O)N[C@H](C(=O)N1CCC[C@H]1C(N)=O)[C@@H](C)O)C(C)C)[C@@H](C)O)N(C)C(=O)[C@H](C)NC(=O)CN(C)C(=O)[C@H](Cc1ccccc1)NC(=O)[C@H](CO)NC(=O)[C@H](CO)NC(=O)[C@H](CO)NC(=O)[C@H](CO)NC(=O)[C@H](CCCNC(=N)N)NC(=O)[C@H](Cc1c[nH]cn1)NC(=O)[C@H](CC(C)C)NC(=O)[C@H](Cc1ccccc1)NC(=O)[C@H](CCC(=O)O)NC(=O)[C@H](C)NC(=O)[C@H](CC(C)C)NC(=O)[C@H](CCCNC(=N)N)NC(=O)[C@H](CCC(=O)O)NC(=O)[C@@H](NC(=O)[C@H](C)NC(=O)[C@@H]1CSSC[C@H](NC(=O)[C@H](CCCNC(=N)N)NC(=O)CC[C@H](NC(=O)CCCCCCCCCCCCCCCCCCC(=O)O)C(=O)O)C(=O)N[C@@H](CO)C(=O)N[C@@H]([C@@H](C)O)C(=O)N[C@@H](C)C(=O)N[C@@H]([C@@H](C)O)C(=O)N1)[C@@H](C)O [Compound 135, [19CD]-isoGlu-RC()STATC()ATERLAEFLHRSSSSF-Gly(Me)-A-Ile(Me)-LSSTEVGSETP-NH2] ({C20 diacid-γGlu}-RCSTATCATERLAEFLHRSSSSF[Sar]A[NMeI]LSSTEVGSETP-NH2; disulfide 2-7)
[1]
  Solubility, Acetate buffer pH 4: SS (SS indicates solubility ≥ 1mg/ml)
  Solubility, Acetate buffer pH 5: SS (SS indicates solubility ≥ 1mg/ml)
  Solubility, Histidine buffer pH 6: SS (SS indicates solubility ≥ 1mg/ml)
  Solubility, Histidine buffer pH 7: SS (SS indicates solubility ≥ 1mg/ml)
  Solubility, Phosphate buffer pH 6: SS (SS indicates solubility ≥ 1mg/ml)
  Solubility, Phosphate buffer pH 7: SS (SS indicates solubility ≥ 1mg/ml)
  Solubility, Phosphate buffer pH 7.5: SS (SS indicates solubility ≥ 1mg/ml)
[2]
  EC50: 0.76 nM
[3]
  EC50: 0.61 nM

## CC[C@H](C)[C@@H](C(=O)N[C@@H](CC(C)C)C(=O)N[C@@H](CO)C(=O)N[C@@H](CO)C(=O)N[C@H](C(=O)N[C@@H](CCC(=O)O)C(=O)N[C@H](C(=O)NCC(=O)N[C@@H](CO)C(=O)N[C@@H](CCC(=O)O)C(=O)N[C@H](C(=O)N1CCC[C@H]1C(N)=O)[C@@H](C)O)C(C)C)[C@@H](C)O)N(C)C(=O)[C@H](C)NC(=O)CN(C)C(=O)[C@H](Cc1ccccc1)NC(=O)[C@H](CO)NC(=O)[C@H](CO)NC(=O)[C@H](CO)NC(=O)[C@H](CO)NC(=O)[C@H](CCCNC(=N)N)NC(=O)[C@H](Cc1c[nH]cn1)NC(=O)[C@H](CC(C)C)NC(=O)[C@H](Cc1ccccc1)NC(=O)[C@H](CCC(=O)O)NC(=O)[C@H](C)NC(=O)[C@H](CC(C)C)NC(=O)[C@H](CCCNC(=N)N)NC(=O)[C@H](CCC(=O)O)NC(=O)[C@@H](NC(=O)[C@H](C)NC(=O)[C@@H]1CSSC[C@H](NC(=O)[C@H](CCCNC(=N)N)NC(=O)CC[C@H](NC(=O)CCCCCCCCCCCCCCCCCCC(=O)O)C(=O)O)C(=O)N2CCC[C@H]2C(=O)N[C@@H]([C@@H](C)O)C(=O)N[C@@H](C)C(=O)N[C@@H]([C@@H](C)O)C(=O)N1)[C@@H](C)O [Compound 136, [19CD]-isoGlu-RC()PTATC()ATERLAEFLHRSSSSF-Gly(Me)-A-Ile(Me)-LSSTEVGSETP-NH2] ({C20 diacid-γGlu}-RCPTATCATERLAEFLHRSSSSF[Sar]A[NMeI]LSSTEVGSETP-NH2; disulfide 2-7)
[1]
  Solubility, Acetate buffer pH 4: SS (SS indicates solubility ≥ 1mg/ml)
  Solubility, Acetate buffer pH 5: SS (SS indicates solubility ≥ 1mg/ml)
  Solubility, Histidine buffer pH 6: SS (SS indicates solubility ≥ 1mg/ml)
  Solubility, Histidine buffer pH 7: SS (SS indicates solubility ≥ 1mg/ml)
  Solubility, Phosphate buffer pH 6: SS (SS indicates solubility ≥ 1mg/ml)
  Solubility, Phosphate buffer pH 7: SS (SS indicates solubility ≥ 1mg/ml)
  Solubility, Phosphate buffer pH 7.5: SS (SS indicates solubility ≥ 1mg/ml)
[2]
  EC50: 0.12 nM
[3]
  EC50: 0.29 nM
